US8816079B2, “Amide derivative and use thereof as medicine” (Mitsubishi Tanabe Pharma Corporation, priority 2010, dated 2014)

Tests used:
[1] = tested on: rat dinitrobenzene-induced colitis model; assay: large intestine weight increase of rat dinitrobenzene-induced colitis model; type: in vivo; conditions: Wistar rat, 10 mg/kg oral once a day, day 8; normal group 0.215 ± 0.011, pathology group 0.633 ± 0.041
Experimental: A dinitrobenzene solution (30 mg/0.1 mL) was injected into the large intestine of anesthetized rats (Wistar, male, 6-week-old). […] On day 8, the large intestine was isolated from euthanized rats, and the wet weight thereof was measured. The large intestine weight was amended to the weight per 100 g body weight of the rats on day 8.

[2] = tested on: rat adjuvant induced arthritis model; assay: hindpaw edema of rat adjuvant induced arthritis model; type: in vivo; conditions: LEW rat, 10 mg/kg oral once a day day 15 to day 20, difference of hindpaw volume day 15 to day 21; disease group (solvent) 0.63 ± 0.13
Experimental: Anesthetized rats (LEW, male, 6-week-old) were immunized with M. Butyricum (5 mg/mL) at a dose of 0.1 mL/body by subcutaneous administration from the tail root. […] […] The amount of hindpaw edema was the difference in the amount between hindpaw volume on day 15 and that on day 21.

[3] = tested on: proMMP-9 production by human TNFα stimulated THP-1 cell; assay: proMMP-9 production by human TNFα stimulated THP-1 cell; type: cell-based; conditions: THP-1 cells, human TNFα 10 ng/mL, 24 hr; IC50 from 3 points at 10, 100 and 1,000 nmol/L; read-out: proMMP-9 production suppression (IC50)
Experimental: (§1) THP-1 cell (human monocytic leukemia cell line) was adjusted to 1×10^7 cells/mL in a culture medium (10% fetal bovine serum/RPMI1640 medium), and dispensed to a 96 well multiplate. This was equilibrated under the conditions of 37° C./5% CO2, and a culture medium containing human TNFα (final concentration 10 ng/mL) and a test compound was added thereto. After incubation under the conditions of 37° C./5% CO2 for 24 hr, the culture medium was centrifuged and the culture supernatant was collected, which was subjected to the following measurement.
Quantification of proMMP-9 in Culture Supernatant
The proMMP-9 concentration of the collected culture supernatant was quantified using a commercially available measurement reagent (manufactured by GE Healthcare, MMP-9, Human, Biotrak ELISA System).
Calculation of proMMP-9 Suppression Rate
The proMMP-9 suppression rate of the test compound was calculated from the following formula: % suppression=100−((Test−Min)/(Max−Min)×100) wherein Max is proMMP-9 concentration of culture supernatant induced by stimulation with human TNFα, without addition of a test compound (added with solvent alone) Min is proMMP-9 concentration of culture supernatant without addition of a test compound (added with solvent alone) and without stimulation with human TNFα, and Test is proMMP-9 concentration of culture supernatant induced by stimulation with human TNFα when a test compound is added.
Furthermore, the concentration of the test compound necessary for suppressing proMMP-9 production by human TNFα stimulated THP-1 cell by 50% ([…]) was calculated from 3 points of proMMP-9 suppression rate at test compound concentrations of 10, 100 and 1,000 nmol/L.

[4] = tested on: proMMP-2 production by THP-1 cell; assay: hemostatic type proMMP-2 production by THP-1 cell; type: cell-based, human; conditions: THP-1 cells without stimulation, 24 hr, test compound 2 μM
Experimental: as §1, with “containing” for “containing human TNFα (final concentration 10 ng/mL) and”
Quantification of proMMP-2 in Culture Supernatant
The proMMP-2 concentration of the collected culture supernatant was quantified using a commercially available measurement reagent (manufactured by GE Healthcare, MMP-2, Human, Biotrak ELISA System).
Calculation of proMMP-2 Suppression Rate
The proMMP-2 suppression rate of the test compound was calculated from the following formula: % suppress=100−((Test/Cont)×100). wherein Cont is proMMP-2 concentration of culture supernatant without addition of a test compound (added with solvent alone) and Test is proMMP-2 concentration of culture supernatant with addition of a test compound.

[5] = tested on: rat monoiodoacetic acid-induced osteoarthritis model; assay: articular joints injury of rat monoiodoacetic acid-induced osteoarthritis model; type: in vivo; conditions: LEW rat, 10 mg/kg oral once a day to day 6, scored on day 7; disease group (solvent) 5.8 ± 0.2
Experimental: Monoiodoacetic acid solution (0.3 mg/25 μL) was injected into the right hindpaw knee joint cavity of anesthetized rats (LEW, male, 7-week-old). A test compound was orally administered once a day from immediately after monoiodoacetic acid injection to day 6 at a dose of 10 mg/kg. On day 7, right hindpaw knee joint was taken from euthanized rats, and fixed with 10% neutral formalin solution. A pathology specimen of knee joint was prepared, stained with Hematoxylin Eosin and Safranine O, and the state of joint cartilage injury was scored under microscopic observation. For articular joint injury scores, changes in each pathological finding in medial condyle of femur and medial condyle of tibia (cartilage surface tuberosity, erosion/ulcer/fibrillation, chondrocyte disorganization/disappearance/hypertrophy, reduction of Safranine staining) were divided into mild, moderate and severe according to the method of Kobayashi et al. (Kobayashi K et al. J. Vet. Med. Sci. 65, 1195 1199 2003), and indicated in the scores of 1, 2 and 3 and totaled. Furthermore, an average of the score of medial condyle of femur and that of medial condyle of tibia was determined and used as an articular joint injury score.

| Compound | IC50 [3] | further results |
| --- | --- | --- |
| Cc1ccc(N2CCN(C(=O)c3ccc(N4CCCS4(=O)=O)cc3S(C)(=O)=O)CC2)c(C)c1 [Example 11, [4-(2,4-dimethylphenyl)piperazin-1-yl][4-(1,1-dioxo-1λ^6-isothiazolidin-2-yl)-2-methanesulfonylphenyl]methanone] |  | large intestine weight (g/100 g body weight) [1]: 0.509 ± 0.051 g/100 g body weight; hindpaw edema volume of compound administration group [2]: 0.24 ± 0.10 |
| Cc1cnc(N2CCN(C(=O)c3ccc(N4CCCS4(=O)=O)cc3F)CC2)c(C)c1 [Example 130, [4-(3,5-dimethylpyridin-2-yl)piperazin-1-yl][4-(1,1-dioxo-1λ^6-isothiazolidin-2-yl)-2-fluorophenyl]methanone] | 44 nM | MMP-2 production suppression (% suppression, 2 μM) [4]: 8.0% |
| Cc1cnc(N2CCN(C(=O)c3ccc(N4CCCS4(=O)=O)cc3C)CC2)c(C)c1 [Example 154, [4-(3,5-Dimethylpyridin-2-yl)piperazin-1-yl][4-(1,1-dioxo-1λ^6-isothiazolidin-2-yl)-2-methylphenyl]methanone] | 82 nM | articular joint injury score of compound administration group [5]: 4.6 ± 0.4; MMP-2 production suppression (% suppression, 2 μM) [4]: 13.0% |
| Cc1cc(C2CC2)cnc1N1CCN(C(=O)c2ccc(CN3CCCS3(=O)=O)cc2)CC1 [Example 245, [4-(5-cyclopropyl-3-methylpyridin-2-yl)piperazin-1-yl][4-(1,1-dioxo-1λ^6-isothiazolidin-2-ylmethyl)phenyl]methanone] | 73 nM |  |
| Cc1cnc(N2CCN(C(=O)c3ccc(N4CCCC4=O)cc3F)CC2)c(C)c1 [Example 282, 1-{4-[4-(3,5-dimethylpyridin-2-yl)piperazine-1-carbonyl]-3-fluorophenyl}pyrrolidin-2-one] | 76 nM |  |
| Cc1cnc(N2CCN(C(=O)c3ccc(N(C)S(C)(=O)=O)cc3F)CC2)c(C)c1 [Example 494, N-{4-[4-(3,5-dimethylpyridin-2-yl)piperazine-1-carbonyl]-3-fluorophenyl}-N-methylmethanesulfonamide] | 102 nM |  |
| Cc1cc(C2CC2)cnc1N1CCN(C(=O)c2cnc(N3C(=O)CCC3C)cn2)CC1 (centres unmarked) [Example 687, 1-{5-[4-(5-cyclopropyl-3-methylpyridin-2-yl)piperazine-1-carbonyl]pyrazin-2-yl}-5-methylpyrrolidin-2-one] | 41 nM |  |

Second part, led by results:

| IC50 [3] | Compound | further results |
| --- | --- | --- |
| 10 nM | Cc1cnc(N2CCN(C(=O)c3ccc(N4CCNC4=O)cc3F)CC2)c(C)c1 [Example 416, 1-{4-[4-(3,5-dimethylpyridin-2-yl)piperazine-1-carbonyl]-3-fluorophenyl}imidazolidin-2-one] |  |
| 36 nM | CC(=O)Nc1ccc(C(=O)N2CCN(c3ccc(C)cc3C)CC2)c(S(C)(=O)=O)c1 [Example 474, N-{4-[4-(2,4-dimethylphenyl)piperazine-1-carbonyl]-3-methanesulfonylphenyl}acetamide] |  |
| 7 nM | Cc1cc(C)c(N2CCN(C(=O)c3ccc(N4C(=O)NC(=O)C4C)nc3)CC2)nc1C (centres unmarked) [Example 549, 5-methyl-1-{5-[4-(3,5,6-trimethylpyridin-2-yl)piperazine-1-carbonyl]pyridin-2-yl}imidazolidine-2,4-dione] |  |
